Assays:
caspase 3 = experiment: Cleaved caspase 3 immunofluorescence in human islets; format: cell-based; details: palmitate + high glucose 24h, same inhibitor concentrations as Fig 3
human islet = details: cited from earlier work
XO = details: cited from earlier work
[1] = cited from earlier work
Nox2 = details: cited from earlier work
EndoC-βH1 cells = experiment: EndoC-βH1 cell viability (PI, flow cytometry); format: cell-based, human; details: inhibitor 0.2, 0.5 or 1.0 μM; for cell death rates in EndoC-βH1 cells exposed to cytokines: 2-day incubation; for cell death rates in EndoC-βH1 cells exposed to high glucose + palmitate: 24h incubation
Description: […] Cells were then vital stained with 10 μg/ml propidium iodide (PI) for 10 min at 37°C. Free-floating cells and cells attached to the culture dish were washed separately with PBS, pooled and examined by flow cytometry using a FACSCalibur (BD Biosciences, Franklin Lakes, NJ, USA). In each experimental group 10000 cells were examined and gated by PI intensity and FSC signal. The percentage of dead cells was analyzed using […] software (BD Biosciences).

human islet cells [2] = experiment: Human islet cell viability (PI/bisbenzimide ratio); format: cell-based; details: for human islet cell death, cytokines: IL-1β + IFN-γ 20 ng/ml each; for human islet cell death, cytokines / human islet cell death, high glucose + palmitate: 48h, ML171 2 μM, Phox-I2 2 μM, GLX7013114 1 μM; for human islet cell death, high glucose + palmitate: palmitate 1.5 mM + 20 mM glucose
Description: […] Cell viability was measured by staining cells with propidium iodide (20 μg/ml) and bisbenzimide (5 μg/ml) for 20 min at 37°C. The medium was replaced with PBS and the red and blue fluorescence was detected using a Nikon Eclipse fluorescence TE2000-U microscope (Nikon Instruments, Amsterdam, the Netherlands). The ratio of red to blue was taken as a relative measure of cell death (necrosis and late apoptosis) and was quantified using the Image J software (National Institutes of Health).

all Nox enzymes = details: cited from earlier work
DUOX1 = system: DUOX1; design: method as in PMID 24053146; details: cited from earlier work
human islet cells [3] = experiment: ROS production in human islets (DCF fluorescence); format: cell-based; details: palmitate 1.5 mM + 20 mM glucose 24h, inhibitor during last 3h: DPI 0.2 μM, Dapsone 10 μM, GLX351322 10 μM, GLX481372 6 μM
Description: Human islets were incubated at control condition (cultured as described above) or with the addition of 1.5 mM palmitate (2% BSA) + 20 mM high glucose for 24h. During the last 3h of the 24h incubation, Nox inhibitors were added to the culture medium. During the last 40 min of the 24h incubation, human islets were loaded with the free radical indicator carboxy-H2DCFDA (5-(and-6)-carboxy-2',7'-dichlorodihydrofluorescein diacetate, 10 μM, Life Technologies, Stockholm, Sweden) at 37 °C. Hoechst stain (Life Technologies), which labels cell nuclei, was added during the last 10 min of this incubation. The islets were then washed and placed on the stage of an inverted confocal microscope (Nikon TE2000-U) and analyzed for green (DCF—dichlorofluorescein) and blue fluorescence (Hoechst). For each treatment group, 5 images (100–250 cells in each image) were taken at different areas. The intensity of green (DCF) and blue (Hoechst) signals was quantified using Image J software (National Institutes of Health, USA) and ratios between green and blue signals were calculated as a relative measure of oxidative stress.

Nox4 = target: T1, Nox4 (Homo sapiens, UniProt Q9NPH5); details: cited from earlier work
T1 construct: host or cells: HEK 293 (CJ, constitutive) and T-REx-293 (tetracycline-inducible)
T1 sequence (Q9NPH5 1-578): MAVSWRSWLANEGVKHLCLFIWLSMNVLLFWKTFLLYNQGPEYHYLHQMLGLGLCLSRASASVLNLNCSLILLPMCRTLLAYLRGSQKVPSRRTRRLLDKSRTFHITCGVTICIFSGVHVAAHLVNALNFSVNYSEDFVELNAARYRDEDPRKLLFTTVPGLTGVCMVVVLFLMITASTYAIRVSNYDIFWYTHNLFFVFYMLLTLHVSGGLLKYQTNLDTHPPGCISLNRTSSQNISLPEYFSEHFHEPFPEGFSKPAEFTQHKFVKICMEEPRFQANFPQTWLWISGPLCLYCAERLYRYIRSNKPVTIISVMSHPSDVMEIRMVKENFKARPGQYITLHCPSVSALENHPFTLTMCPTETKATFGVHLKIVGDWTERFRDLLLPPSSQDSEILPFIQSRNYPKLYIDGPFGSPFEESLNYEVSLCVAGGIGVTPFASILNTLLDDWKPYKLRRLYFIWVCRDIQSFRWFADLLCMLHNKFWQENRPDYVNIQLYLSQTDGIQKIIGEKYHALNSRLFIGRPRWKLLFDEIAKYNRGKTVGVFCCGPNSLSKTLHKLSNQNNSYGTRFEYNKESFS
T1 sequence (P13498 2-195 partner limits assumed): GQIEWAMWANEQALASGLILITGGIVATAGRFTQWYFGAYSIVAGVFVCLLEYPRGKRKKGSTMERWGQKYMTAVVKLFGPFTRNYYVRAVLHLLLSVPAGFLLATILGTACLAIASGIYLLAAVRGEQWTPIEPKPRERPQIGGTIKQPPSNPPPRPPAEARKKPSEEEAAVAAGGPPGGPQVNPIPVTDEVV

Row | SMILES | activation of caspase 3 in human islets (caspase 3) | XO inhibition (XO) | IC50 (Nox2) [µM] | cell death rates in EndoC-βH1 cells exposed to cytokines (EndoC-βH1 cells) | cell death rates in EndoC-βH1 cells exposed to high glucose + palmitate (EndoC-βH1 cells) | human islet cell death, cytokines (human islet cells [2]) | human islet cell death, high glucose + palmitate (human islet cells [2]) | also measured
1 | CCOC(=O)c1c(NC(=O)CN2CCN(C(=O)c3ccco3)CC2)sc2c1CCC2 [GLX351322] | reduced activation of caspase 3 | Inactive | 40 |  |  |  |  | high glucose-induced inhibition of human islet insulin release and survival (human islet): protected against high glucose-induced inhibition of human islet insulin release and survival; high-fat diet-induced glucose intolerance [1]: amelioration of high-fat diet-induced glucose intolerance
2 | O=[N+]([O-])c1cccc(C2Nc3ccc([N+](=O)[O-])cc3C3C=CCC32)c1 (stereo not shown) [Phox-I2] |  |  | 1 | failed to affect cell death rates | failed to affect cell death rates | failed to protect | partially protected | 
3 | c1ccc2c(c1)[I+]c1ccccc1-2 [DPI, diphenyleneiodoniumchloride] | reduced activation of caspase 3 | Yes | […] |  |  |  |  | IC50 values for all Nox enzymes (all Nox enzymes): nM range
4 | Nc1ccc(S(=O)(=O)c2ccc(N)cc2)cc1 [dapsone] | reduced activation of caspase 3 |  |  |  |  |  |  | inhibition of expression/activity of DUOX1 (DUOX1): μM concentrations; human islet ROS production (DCF/DAPI ratio) (human islet cells [3]): reduced human islet ROS production; inhibition of expression/activity of Nox4 (Nox4): μM concentrations; human islet cell viability (PI and Bisbenzimide ratio) (human islet cells [2]; palmitate + high glucose 24h, inhibitor throughout: DPI 0.2 μM, Dapsone 10 μM, GLX351322 10 μM, GLX481372 6 μM): improved viability
5 | CC(=O)c1ccc2c(c1)Nc1ccccc1S2 [ML171] |  |  | […] | failed to affect cell death rates | failed to affect cell death rates | failed to reduce human islet cell death | failed to reduce human islet cell death | IC50 (XO; read-out: XO inhibition): 5.5 µM

— article PMC6161897, “The novel NADPH oxidase 4 selective inhibitor GLX7013114 counteracts human islet cell death in vitro” (PLoS ONE, 2018)
